Measured values from US9309191B2 (priority 2013, dated 2016).

Test system: Magnaporthe grisea
Type: in vivo
Conditions: rice (Nipponbare); for lesion area of treated plants relative to the lesion area in the non-treated plant: 200 ppm foliar spray, contact with affected seedlings for 6 days; for Lesion Area (%): Concentration 200 ppm foliar spray, table

Compound | lesion area of treated plants relative to the lesion area in the non-treated plant [%] | Lesion Area (%)
Cc1cc(OCC2CC2)c(C)cc1/N=C/N(C)C [1-17, N′-(4-cyclopropylmethoxy-2,5-dimethylphenyl)-N,N-dimethylformamidine] | ≤ 10 | 1-10%
Cc1cc(OCC2CCCCC2)c(C)cc1N=CN(C)C [Compound 267, N′-(4-cyclohexylmethoxy-2,5-dimethylphenyl)-N,N-dimethylformamidine] | ≤ 50 | 31-50%
